US20220175777A1, “Inhibitors of Multidrug Resistance Transporter P-Glycoprotein” (Southern Methodist University, priority 2014, published 2022)

Assays:
DU145TXR [1] = experiment: Resensitization of DU145TXR to paclitaxel by 29 variants (MTT cell viability); format: cell-based, human; settings: for Fold vs PTX ÷ 29: compared to parental compound 29
Excerpt: The Group 1 ChemGen/docking routine produced variants of P-gp inhibitor 29 resensitize a multidrug resistant, P-gp overexpressing prostate cancer cell line to paclitaxel. The mitochondrial reduction potential of cells is often used as an indicator for cell viability using MTT assays^40-42. Using these assays it was observed that the five Group 1 derivatives of 29 predicted through the ChemGen/docking routine and synthesized here, 216, 227, 231, 541 and 551, re-sensitized the P-gp overexpressing prostate cancer cell line, DU145TXR^33, to the chemotherapeutic, paclitaxel (FIG. 9, showing results of assays at concentrations of 3 μM, 5 μM, 7 μM, and 10 μM).
Cytotoxicity of the chemotherapeutic, paclitaxel (PTX) to P-gp overexpressing prostate cancer cells, DU145TXR, was determined in the absence and presence of the ChemGen designed 29-variants, 216, 227, 231, 541 and 551. For each experimental compound IC50 values of PTX alone or in the presence of inhibitors, fold improvement of PTX sensitivity in the presence of inhibitor, and fold improvement of PTX sensitivity by variants compared to parental compound 29 are given.

DU145TXR [2] = experiment: Dose dependent sensitization of MDR cell line to paclitaxel (MTT); format: cell-based, human; settings: 25 μM compound
Description: FIGS. 6A to 6C show the dose dependent sensitization of MDR prostate cancer cell line DU145TxR. […] For reference, the DU145TxR (closed circle) and DU145 (open circle) incubated with paclitaxel only are also included. Values are mean±SEM from at least 2 separate experiments performed in triplicate wells. The data were normalized to the intrinsic toxicities as determined in studies from FIGS. 5A to 5C of each of the compounds for each of the corresponding concentrations.
Dose Dependent Sensitization of MDR Prostate Cancer Cell Line: To determine the degree to which the MDR prostate cancer cell line DU145TxR could be sensitized to paclitaxel the inventors determined cell survival at increasing concentrations of paclitaxel in the presence of three concentrations of P-gp inhibitors. FIGS. 6A, 6B and 6C show the survival of DU145TxR at increasing concentration of paclitaxel in the presence of 5 μM, 10 μM and 25 μM of the experimental compounds, respectively. The open circles represent the parental DU145 cell line in the presence of paclitaxel without addition of any inhibitor compound. The closed circles represent the survival of the multidrug resistant DU145TxR in the presence of paclitaxel alone. […] At that concentration over 10-fold increase in paclitaxel sensitivity in DU145TxR is observed compared to DU145TxR without P-gp inhibitors. Doubling the concentration of the compounds to 10 μM approximately doubled the DU145TxR sensitivity to paclitaxel.

DU145TXR [3] = experiment: Intrinsic toxicity, MTT survival; format: cell-based, human; settings: Homo sapiens; intrinsic toxicity, 48 hours, MTT; ± standard error
Description: (§1) Percent survival determined by MTT assay calculated relative to cells treated with equal volume DMSO vehicle and represent the mean±SEM from 2-4 separate studies, each study performed in triplicate wells.
(§2) The intrinsic in vitro toxicities of identified compounds were evaluated to determine their potential therapeutic window. This was assessed in a noncancerous cell line (HFL1) and the human prostate cancer cell lines DU145 and the MDR sub-line DU145TxR.

[4] = molecular target: Normal Human MDR1 P-glycoprotein (Homo sapiens, UniProt P08183); experiment: ATP hydrolysis by human P-gp assembled into membrane nanodiscs; format: biochemical; settings: human MDR1 P-gp in nanodiscs
Normal Human MDR1 P-glycoprotein, sequence (P08183 whole entry): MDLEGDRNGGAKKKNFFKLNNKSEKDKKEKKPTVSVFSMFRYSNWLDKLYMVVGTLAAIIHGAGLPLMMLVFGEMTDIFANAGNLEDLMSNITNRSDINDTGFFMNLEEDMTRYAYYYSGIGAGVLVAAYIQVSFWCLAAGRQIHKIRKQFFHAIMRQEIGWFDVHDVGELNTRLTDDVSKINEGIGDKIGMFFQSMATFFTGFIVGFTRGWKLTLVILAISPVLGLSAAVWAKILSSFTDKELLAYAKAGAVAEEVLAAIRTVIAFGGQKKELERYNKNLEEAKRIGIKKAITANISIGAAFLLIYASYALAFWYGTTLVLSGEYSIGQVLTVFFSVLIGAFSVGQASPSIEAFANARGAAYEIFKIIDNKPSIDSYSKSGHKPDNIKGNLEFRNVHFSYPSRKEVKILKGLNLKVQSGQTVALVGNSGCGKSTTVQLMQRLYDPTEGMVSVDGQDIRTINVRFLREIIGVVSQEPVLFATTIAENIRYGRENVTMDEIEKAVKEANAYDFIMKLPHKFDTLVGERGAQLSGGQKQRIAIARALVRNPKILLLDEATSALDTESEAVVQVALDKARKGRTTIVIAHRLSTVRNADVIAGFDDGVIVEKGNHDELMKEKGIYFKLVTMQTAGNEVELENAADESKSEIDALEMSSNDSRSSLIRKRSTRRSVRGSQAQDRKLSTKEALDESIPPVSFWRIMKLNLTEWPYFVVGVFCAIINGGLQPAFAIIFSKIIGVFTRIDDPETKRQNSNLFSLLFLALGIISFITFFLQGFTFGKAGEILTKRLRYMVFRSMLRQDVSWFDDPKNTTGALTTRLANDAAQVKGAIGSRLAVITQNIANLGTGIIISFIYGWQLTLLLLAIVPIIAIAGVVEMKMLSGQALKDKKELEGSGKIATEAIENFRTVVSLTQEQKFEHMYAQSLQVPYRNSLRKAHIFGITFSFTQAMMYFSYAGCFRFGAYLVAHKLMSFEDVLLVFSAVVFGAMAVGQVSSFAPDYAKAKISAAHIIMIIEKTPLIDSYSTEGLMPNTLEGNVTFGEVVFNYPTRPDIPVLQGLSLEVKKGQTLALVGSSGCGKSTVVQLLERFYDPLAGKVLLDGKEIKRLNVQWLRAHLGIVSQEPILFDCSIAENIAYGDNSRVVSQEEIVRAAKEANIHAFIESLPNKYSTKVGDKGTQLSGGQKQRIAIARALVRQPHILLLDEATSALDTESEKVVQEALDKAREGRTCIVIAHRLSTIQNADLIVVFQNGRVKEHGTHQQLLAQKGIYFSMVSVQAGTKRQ
Excerpt: To assess whether the observed discrepancies of compounds stimulating basal P-gp ATPase activity but not being transport substrates of the human pump in the cell culture assessments were due to the fact that these biochemical assays used a cysteineless variant of the mouse MDR3 P-glycoprotein, the experiments were repeated using normal human MDR1 P-gp. In order to stabilize the human protein for the activity assays, the protein was assembled into membrane nanodiscs as described herein.

A2780 = experiment: Hyper-sensitization of ovarian cancer cells to doxorubicin; format: cell-based; settings: not chemotherapy resistant A2780
Excerpt: Hyper-sensitization of cancers to chemotherapeutics. […] The sensitivity of normal, not chemotherapy resistant A2780 ovarian cancer cell lines to doxorubicin was increased by several orders of magnitude in these assays.

HFL1 = experiment: Intrinsic toxicity, MTT survival; format: cell-based; settings: Homo sapiens, 48 hours, ± standard error
Description: as §1
as §2, with “DU145TxR. The potential toxicity of the compounds were assessed at concentrations that centered around 25 μM.” for “DU145TxR.”

[5] = molecular target: T1, Cysteineless Mouse MDR3 P-glycoprotein (Mus musculus, UniProt P21447, C1070A/C1121A/C1223A/C133A/C427A/C638A/C669A/C713A/C952A); settings: cited from earlier work
T1 construct: made in house; host or cells: Pichia pastoris
T1 sequence (P21447 whole entry C133A/C427A/C638A/C669A/C713A/C952A/C1070A/C1121A/C1223A): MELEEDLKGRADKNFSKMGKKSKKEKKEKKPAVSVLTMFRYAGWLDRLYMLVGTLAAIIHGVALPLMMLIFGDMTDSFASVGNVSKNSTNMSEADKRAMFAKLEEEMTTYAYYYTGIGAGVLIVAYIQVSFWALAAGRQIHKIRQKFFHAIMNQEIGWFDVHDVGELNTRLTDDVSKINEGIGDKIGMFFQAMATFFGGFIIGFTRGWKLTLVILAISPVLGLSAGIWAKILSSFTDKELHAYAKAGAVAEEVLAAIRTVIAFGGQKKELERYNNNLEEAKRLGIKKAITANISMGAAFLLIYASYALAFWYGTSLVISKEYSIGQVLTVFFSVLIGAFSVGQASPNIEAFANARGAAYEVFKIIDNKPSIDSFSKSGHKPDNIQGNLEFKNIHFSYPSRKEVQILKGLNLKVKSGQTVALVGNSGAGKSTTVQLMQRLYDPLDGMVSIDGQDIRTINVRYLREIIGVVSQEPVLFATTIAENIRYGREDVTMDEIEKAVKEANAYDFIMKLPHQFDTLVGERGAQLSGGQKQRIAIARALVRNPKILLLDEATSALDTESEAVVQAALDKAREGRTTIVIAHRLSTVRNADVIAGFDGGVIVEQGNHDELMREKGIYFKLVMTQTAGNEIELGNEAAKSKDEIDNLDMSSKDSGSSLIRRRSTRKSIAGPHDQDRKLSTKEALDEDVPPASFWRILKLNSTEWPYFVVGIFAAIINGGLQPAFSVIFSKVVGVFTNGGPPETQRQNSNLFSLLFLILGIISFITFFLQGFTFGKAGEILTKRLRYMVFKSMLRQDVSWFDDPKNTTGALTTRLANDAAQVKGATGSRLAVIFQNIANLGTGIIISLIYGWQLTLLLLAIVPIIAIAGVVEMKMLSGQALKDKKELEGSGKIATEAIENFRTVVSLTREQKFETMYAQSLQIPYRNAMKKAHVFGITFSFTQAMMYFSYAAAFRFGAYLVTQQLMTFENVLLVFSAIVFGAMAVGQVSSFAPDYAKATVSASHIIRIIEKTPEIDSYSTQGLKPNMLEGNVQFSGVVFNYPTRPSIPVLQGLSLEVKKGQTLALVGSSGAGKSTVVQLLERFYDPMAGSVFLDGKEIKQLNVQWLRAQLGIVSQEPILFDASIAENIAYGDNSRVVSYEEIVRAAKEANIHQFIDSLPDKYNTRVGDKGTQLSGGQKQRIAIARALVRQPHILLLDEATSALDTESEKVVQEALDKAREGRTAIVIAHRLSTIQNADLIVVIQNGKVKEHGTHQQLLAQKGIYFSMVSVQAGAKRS

DU145TXR [6] = experiment: Potentiation of 500 nM paclitaxel cytotoxicity (MTT); format: cell-based, human
Description: FIGS. 4A and 4B show the in silico identified P-gp inhibitors potentiate the cytotoxic effects of paclitaxel in the MDR human prostate cancer cell line DU145TxR. […] Values represent the mean±SEM of at least two separate experiments performed in triplicate.
A range of experimental inhibitor concentrations was added in the presence of 500 nM paclitaxel and the cell viability was assessed using the MTT assay.
In order to compare the efficacy of inhibitors, the potentiation concentration of inhibitor resulting in 50% reduction in cell viability, PC50, in the presence of 500 nM paclitaxel was calculated from the data in FIG. 4A.

Question: For Cc1cc(C)c(-c2cc(NC(=O)CSc3n[nH]c(C4CC4)n3)n(-c3ccccc3)n2)cc1C [SMU-29, 2-[(5-cyclopropyl-1H-1,2,4-triazol-3-yl)sulfanyl]-N-[2-phenyl-5-(2,4,5-trimethylphenyl)pyrazol-3-yl]acetamide], which “Fold vs PTX ÷ 29” value (DU145TXR [1]; 3 μM inhibitor) is on record?
Answer: 1 Fold

Question: And the “Fold vs PTX” value (DU145TXR [1]; 3 μM inhibitor, fold improvement of PTX sensitivity vs PTX alone)?
Answer: 3 Fold

Question: What about the “Fold vs PTX ÷ 29” value (DU145TXR [1]; 5 μM inhibitor) of the same molecule?
Answer: 1 Fold

Question: What about the “Fold vs PTX” value (DU145TXR [1]; 5 μM inhibitor, vs PTX alone) of the same molecule?
Answer: 11 Fold

Question: And the “Fold vs PTX ÷ 29” value (DU145TXR [1]; 7 μM inhibitor)?
Answer: 1 Fold

Question: What about the “Fold vs PTX” value (DU145TXR [1]; 7 μM inhibitor, vs PTX alone) of the same molecule?
Answer: 36 Fold

Question: What about the “Fold vs PTX ÷ 29” value (DU145TXR [1]; 10 μM inhibitor) of the same molecule?
Answer: 1 Fold

Question: And the “Fold vs PTX” value (DU145TXR [1]; 10 μM inhibitor, vs PTX alone)?
Answer: 101 Fold

Question: And the Sensitization to paclitaxel (DU145TXR [2])?
Answer: 800 fold

Question: And the IC50 (DU145TXR [3])?
Answer: 37.9 ± 0.02 µM

Question: What about the “Basal ATPase (% of DMSO)” value ([4]; basal) of the same molecule?
Answer: 88 ± 9 % of DMSO

Question: What about the “Stimulated ATPase (% of DMSO)” value ([4]; stimulated) of the same molecule?
Answer: 62 ± 3 % of DMSO

Question: What about the Sensitivity to doxorubicin (A2780) of the same molecule?
Answer: hyper-sensitized

Question: And the IC50 (HFL1)?
Answer: 48.2 ± 0.01 µM

Question: What about the “Effect on SL-ANP binding” value ([5]; ESR data of Brewer et al. (2014)) of the same molecule?
Answer: not interfere with ATP binding

Question: What about the “Maximum ATP binding mol SL-ANP bound/mol P-gp” value ([5]; in presence of 29, taken from Brewer et al. (2014)) of the same molecule?
Answer: 1.9 ± 0.1^1 mol SL-ANP bound/mol P-gp

Question: What about the “Effect on paclitaxel sensitivity” value (DU145TXR [6]; 50 nM-25 μM inhibitor with 500 nM paclitaxel) of the same molecule?
Answer: strongly affected the sensitivity

Question: And the EC50 (DU145TXR [6]; in the presence of 500 nM paclitaxel, 48 hours, read-out: PC50, potentiation concentration of inhibitor resulting in 50% reduction in cell viability)?
Answer: 2.33 ± 0.01 µM
